Data from patent publication US9751853B2, “Solid forms of 3-(5-amino-2-methyl-4-oxo-4H-quinazolin-3-yl)-piperidine-2,6-dione, and their pharmaceutical compositions and uses” (Celgene Corporation, priority 2011, dated 2017).
“Also recorded” adds a separate entry of the source. Like-named read-outs stand apart in the source and are kept apart here.

Legend:
[1] = Solvent/anti-solvent recrystallization, solid form by XRPD; format: physicochemical; conditions: MeCN/H2O, ratio 1:5
Protocol: Solvent/Anti-Solvent Recrystallization: The selected solvent (MeCN/water) was saturated with Compound A hydrochloride at room temperature. Once the solids were completely dissolved, an anti-solvent (acetone or IPA) was added into the solution. The mixture was stirred at room temperature overnight. If no precipitation occurred, the vial was further cooled by placing into a refrigerator (about 0-5° C.). The solids resulting from the recrystallization were filtered and air-dried.
X-ray Powder Diffraction (XRPD): XRPD analysis was conducted on a Thermo ARL X'TRA™ X-ray powder diffractometer using Cu Kα radiation at 1.54 Å. The instrument was equipped with a fine focus X-ray tube. The voltage and amperage of X-ray generator were set at 45 kV and 40 mA, respectively. The divergence slices were set at 4 mm and 2 mm and the measuring slices were set at 0.5 mm and 0.2 mm. Diffracted radiation was detected by a peltier-cooled Si(Li) solid-state detector. A theta-two theta continuous scan at 2.40°/min (0.5 sec/0.02° step) from 1.5°2θ to 40°2θ was used. A sintered alumina standard was used to check the peak position. In general, positions of XRPD peaks are expected to individually vary on a measurement-by-measurement basis by about +0.2°2θ. […]

[2] = Equilibration/slurry experiments, solid form by XRPD; format: physicochemical
Protocol: Equilibration/Slurry and Evaporation: Equilibration and evaporation experiments were carried out by adding an excess of Compound A hydrochloride to about 2 mL of a test solvent. The resulting mixture was agitated for at least 24 hrs at about 25° C. or about 50° C. Upon reaching equilibrium, the saturated solution was removed and allowed to evaporate slowly in an open vial under nitrogen at about 25° C. and about 50° C., respectively. The solids resulting from the equilibration were filtered and dried in the air.
X-ray Powder Diffraction (XRPD): XRPD analysis was conducted on a Thermo ARL X'TRA™ X-ray powder diffractometer using Cu Kα radiation at 1.54 Å. The instrument was equipped with a fine focus X-ray tube. The voltage and amperage of X-ray generator were set at 45 kV and 40 mA, respectively. The divergence slices were set at 4 mm and 2 mm and the measuring slices were set at 0.5 mm and 0.2 mm. Diffracted radiation was detected by a peltier-cooled Si(Li) solid-state detector. A theta-two theta continuous scan at 2.40°/min (0.5 sec/0.02° step) from 1.5°2θ to 40°2θ was used. A sintered alumina standard was used to check the peak position. In general, positions of XRPD peaks are expected to individually vary on a measurement-by-measurement basis by about +0.2°2θ. In general, as understood in the art, two XRPD patterns match one another if the characteristic peaks of the first pattern are located at approximately the same positions as the characteristic peaks of the second pattern. As understood in the art, determining whether two XRPD patterns match or whether individual peaks in two XRPD patterns match may require consideration of individual variables and parameters such as, but not limited to, preferred orientation, phase impurities, degree of crystallinity, particle size, variation in diffractometer instrument setup, variation in XRPD data collection parameters, and/or variation in XRPD data processing, among others. The determination of whether two patterns match may be performed by eye and/or by computer analysis.

[3] = Stability upon compression; conditions: 2000-psi pressure for about 1 minute
[4] = Approximate solubility in test solvents (visual/gravimetric); format: physicochemical; conditions: thermodynamic from solid
Protocol: Solubility: A weighed sample of Compound A hydrochloride (about 50 mg) was treated with a known volume of a test solvent. The solvents used were either reagent or HPLC grade. The resulting mixture was agitated for at least 24 hours at about 25° C. If all of the solids appeared to be dissolved by visual inspection, the estimated solubilities were calculated based on the total volume of solvent used to give a complete solution. The actual solubilities may be greater than those calculated due to the use of large amount of solvent or to a slow rate of dissolution. If solids were present, the solubility was measured gravimetrically. A known volume of filtrate was evaporated to dryness and the weight of the residue was measured.

## Cc1nc2cccc(N)c2c(=O)n1C1CCC(=O)NC1=O.Cl (centres unmarked) [Form A1, 3-(5-amino-2-methyl-4-oxo-4H-quinazolin-3-yl)-piperidine-2,6-dione hydrochloride]
[1]; antisolvent Acetone
  XRPD Result after recrystallization: Form A1
[1]; antisolvent IPA, hydrochloride
  XRPD Result after recrystallization: partial salt dissociation; also recorded: Form Al + Form A
[2]; slurry at 50° C., 2-Propanol
  XRPD Result after equilibration: Form A1
[2]; slurry at 50° C., Acetone
  XRPD Result after equilibration: Form A1
[2]; slurry at 50° C., Acetonitrile
  XRPD Result after equilibration: Form A1
[2]; slurry at 50° C., Acetonitrile/Water (1:1)
  XRPD Result after equilibration: Form A + Form A1
[2]; slurry at 50° C., Ethanol
  XRPD Result after equilibration: Form A1
[2]; slurry at 50° C., Ethanol/Water (1:1)
  XRPD Result after equilibration: Form A + Form A1
[2]; slurry at 50° C., Ethyl acetate
  XRPD Result after equilibration: Form A1
[2]; slurry at 50° C., Heptane
  XRPD Result after equilibration: Form A1
[2]; slurry at 50° C., Methanol
  XRPD Result after equilibration: Form A1
[2]; slurry at 50° C., Methyl ethyl ketone
  XRPD Result after equilibration: Form A1
[2]; slurry at 50° C., Tetrahydrofuran
  XRPD Result after equilibration: Form A1
[2]; slurry at 50° C., Tetrahydrofuran/Water (1:1)
  XRPD Result after equilibration: Form A1
[2]; slurry at 50° C., Toluene
  XRPD Result after equilibration: Form A1
[2]; slurry at 50° C., Water
  XRPD Result after equilibration: Form A + Form A1
[2]; slurry at 50° C., n-Butanol
  XRPD Result after equilibration: Form A1
[2]; slurry at room temperature, 2-Propanol
  XRPD Result after equilibration: Form A1
[2]; slurry at room temperature, Acetone
  XRPD Result after equilibration: Form A1
[2]; slurry at room temperature, Acetonitrile
  XRPD Result after equilibration: Form A1
[2]; slurry at room temperature, Acetonitrile/Water (1:1)
  XRPD Result after equilibration: Form A + Form A1
[2]; slurry at room temperature, Ethanol
  XRPD Result after equilibration: Form A1
[2]; slurry at room temperature, Ethanol/Water (1:1)
  XRPD Result after equilibration: Form A + Form A1
[2]; slurry at room temperature, Ethyl acetate
  XRPD Result after equilibration: Form A1
[2]; slurry at room temperature, Heptane
  XRPD Result after equilibration: Form A1
[2]; slurry at room temperature, Methanol
  XRPD Result after equilibration: Form A1
[2]; slurry at room temperature, Methyl ethyl ketone
  XRPD Result after equilibration: Form A1
[2]; slurry at room temperature, Methyl t-butyl ether
  XRPD Result after equilibration: Form A1
[2]; slurry at room temperature, Methylene chloride
  XRPD Result after equilibration: Form A1
[2]; slurry at room temperature, Tetrahydrofuran
  XRPD Result after equilibration: Form A1
[2]; slurry at room temperature, Tetrahydrofuran/Water (1:1)
  XRPD Result after equilibration: Form A + Form A1
[2]; slurry at room temperature, Toluene
  XRPD Result after equilibration: Form A1
[2]; slurry at room temperature, Water
  XRPD Result after equilibration: Form A + Form A1
[2]; slurry at room temperature, n-Butanol
  XRPD Result after equilibration: Form A1
[3]
  stability upon compression: stable
[4]; aqueous with cosolvent or surfactant or cyclodextrin, EtOH/water (1:1), about 25° C., read-out: approximate solubility
  solubility: 3000 to 10000 µg/mL
[4]; aqueous with cosolvent or surfactant or cyclodextrin, MeCN/water (1:1), about 25° C., read-out: approximate solubility
  solubility: > 25000 µg/mL
[4]; aqueous with cosolvent or surfactant or cyclodextrin, THF/water (1:1), about 25° C., read-out: approximate solubility
  solubility: > 25000 µg/mL
[4]; aqueous with cosolvent or surfactant or cyclodextrin, acetonitrile:water, solvent system for scaleup, read-out: solubility
  solubility: > 50000 µg/mL
[4]; organic solvent or mixture, CH2Cl2, about 25° C., read-out: approximate solubility
  solubility: 3000 to 10000 µg/mL
[4]; organic solvent or mixture, MeOH, about 25° C., read-out: approximate solubility
  solubility: 3000 to 10000 µg/mL
[4]; organic solvent or mixture, THF, about 25° C., read-out: approximate solubility
  solubility: 3000 to 10000 µg/mL
[4]; organic solvent or mixture, other organic solvents tested, about 25° C., read-out: approximate solubility
  solubility: < 3000 µg/mL
[4]; water, about 25° C., read-out: approximate solubility
  solubility: 3000 to 10000 µg/mL
